Laboratory results reported in PMC6443933, “Antagonizing Retinoic Acid-Related-Orphan Receptor Gamma Activity Blocks the T Helper 17/Interleukin-17 Pathway Leading to Attenuated Pro-inflammatory Human Keratinocyte and Skin Responses” (Frontiers in Immunology, 2019).

Experiments:
human RORγt-LBD = target: T1, human RORγt-LBD (Homo sapiens, UniProt P51449); assay: TR-FRET RIP140 co-activator peptide displacement from RORγt-LBD; assay type: biochemical; settings: 1 h incubation, read-out: IC50, disruption of RIP140 peptide interaction with RORγt-LBD
T1 construct: human RORγt-LBD (264-518, produced at Novartis); made in house
T1 sequence (P51449 264-518): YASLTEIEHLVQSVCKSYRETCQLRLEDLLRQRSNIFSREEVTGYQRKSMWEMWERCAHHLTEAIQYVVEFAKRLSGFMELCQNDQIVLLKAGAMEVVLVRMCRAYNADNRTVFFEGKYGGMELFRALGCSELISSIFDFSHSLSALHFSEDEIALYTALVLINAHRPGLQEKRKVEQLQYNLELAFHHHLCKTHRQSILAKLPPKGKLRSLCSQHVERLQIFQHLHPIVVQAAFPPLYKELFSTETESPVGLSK
Experimental: Compound-mediated disruption of the interaction between the human RORγt-LBD (264-518, produced at Novartis) with a biotinylated RIP140 derived co-activator peptide (biotinyl-NH-Ahx-[…]-CONH2, Thermo Scientific) was quantified by TR-FRET as previously described ([34], [44]). Briefly, Cpd A was incubated with a mixture consisting of 6 nM His6-tagged RORγt-LBD, 90 nM biotinylated RIP140 co-activator peptide, 0.45 nM Cy5-labeled streptavidin (GE Healthcare), 1.5 nM Europium-labeled anti-His6 antibody (Perkin Elmer). After 1 h of incubation, the emissions were measured at 615 and 665 nm. Concentration-response curves were generated and IC50 values were calculated using the GraphPad Prism software package.

[1] = tested on: human Th17 cells (total CD4+ T-cells); assay: RORγt target gene expression in Th17 cells by qRT-PCR; assay type: cell-based; settings: Th17 polarization 72 h, concentration-dependent
Experimental: Total, naive and memory CD4^+ T cells were isolated from Peripheral blood mononuclear cells (PBMCs) from healthy volunteers by density gradient centrifugation using Ficoll Paque (GE). Total, naive or memory CD4^+ T-cells were prepared by immunomagnetic separation using the respective CD4^+ T-cell enrichment kits resulting in untouched highly purified subsets (EasySep™, Stem Cell). Purity was assessed by flow cytometry and was between 95 and 98% for the total CD4^+ T-cells. The purity of naive (CD45RA^+CD45RO^−) and memory (CD45RA^−CD45RO^+) CD4^+T-cells ranged between 95 and 98%, respectively. For T-cell stimulation experiments, cells were treated as previously published ([44]). Briefly, T-cells were stimulated with plate-bound monoclonal antibodies against CD3 (1 μg/ml, clone OKT-3, BioXcell) and CD28 (1 μg/ml, clone CD28.2, BioLegend). For Th17 polarization assays, IL-6 (20 ng/ml), TGF-β1 (5 ng/ml), IL-1β (10 ng/ml), and IL-23 (10 ng/ml) were added. For Th1 polarization assays, IL-12 (10 ng/ml) and anti-IL-4 antibody (5 μg/ml), for Th2 polarizations, IL-4 (10 ng/ml) and anti-IFN-γ antibody (5 μg/ml) were added. For Th0 polarization assays, cells were only stimulated with CD3 and CD28 antibodies. Supernatants were collected after 3 or 7 days of incubation for total or naive/memory CD4^+ T-cell polarizations, respectively. Cytokine concentrations were quantified by ELISA according to the manufacturer's instructions (eBioscience or BioLegend).
(§1) Total RNA from human Th17 cells (6 × 10^5 cells), RORγt-RORE HUT78 cells (4 × 10^5 cells) and HaCaT cells (6 × 10^4 cells) was extracted using RNeasy kit including a DNAse I digestion step according to the manufacturer‘s protocol (Qiagen). Frozen skin biopsies (8 mm punches) were resuspended in RLT buffer (Qiagen) containing 1% β-mercaptoethanol and homogenized using a Precellys-Cryolys device (Bertin Instruments) according to the manufacturer's instructions. cDNAs were prepared with the High Capacity cDNA Reverse Transcription Kit (Applied Biosystems). Quantitative RT-PCR analysis was performed using a TaqManViiA7 (Applied Biosystems). All runs were accompanied by the internal control gene human β-glucoronidase (Gus) (431088E). The samples were run in triplicate or in hexaplicate and normalized to Gus using the ΔΔCt method to provide arbitrary units representing relative expression levels. The following Taqman probes were used for RT-PCR (Thermo Scientific): RORC (Hs01076112_m1), IL17A (Hs00936345_m1), IL22 (Hs01574154_m1), IL26 (Hs00218189_m1), IL23R (Hs00332759_m1), CCR6 (Hs00218189_m1), NFKBIZ (Hs00355476_m), DEFB4A (Hs00823638_m1), IL36G (Hs00219742_m1), and CCL20 (Hs00355476_m1).

HaCaT keratinocytes = assay: IL-17-driven HaCaT keratinocyte responses (Th17 supernatants or spiked cytokines), qRT-PCR; assay type: cell-based, human; settings: supernatants of Th17 cells treated with 10 μM vs 0.13 nM, 24 h
Experimental: The HaCaT keratinocyte cell line was purchased from AddexBio and was maintained in RPMI 1640 medium supplemented with Glutamax, Penicillin/Streptomycin (all from Gibco) and 10% FCS (PAA). Normal primary human epidermal keratinocytes (NHEKs) were purchased from Lonza and PromoCell, respectively. Cells were cultured in Keratinocyte basal growth medium (KBM; Lonza) containing KGM2 growth supplements including insulin, human epidermal growth factor, bovine pituitary extract, hydrocortisone, epinephrine, transferrin, and gentamicin/amphotericin B (Lonza). HaCaT cells were incubated in a 96-well-microtiter plate (2 × 10^4 cells/well) with Th17 cytokine-containing supernatants obtained from total CD4^+ T-cells that were polarized for 72 h in the presence of anti-CD3/CD28 antibodies and a Th17 polarization cocktail as described above. […] Cytokine concentrations in supernatants were determined from representative experiments and they contained approximately 150 pg/ml or 600 pg/ml of IL-17 in 10 μM or in 0.13 nM treated samples, respectively. The TNF-α concentration was similar in supernatants exposed to low or high Cpd A concentrations and was 4 ng/ml. To study the impact of the IL-17 cytokine, IL-17 in the supernatants and in the spike-in cocktails was neutralized by a 0.5 h pre-incubation with an IL-17-specific antibody [0.75 μg/ml; Secukinumab (Cosentyx®, Novartis)]. All cultures were incubated in triplicates and after a 24 h incubation period, HaCaT cells (6 × 10^4 cells/sample) and NHEKs (1 × 10^5 cells/sample) were harvested and further processed for qRT-PCR analysis.
as §1

`Cc1ccc(C(=O)Nc2cn3ccnc3c(CN3CCN(c4noc(C(C)(C)C)n4)[C@@H](C)C3)c2C)cn1` [Cpd A, (S)-N-(8-((4-(5-(tert-butyl)-1,2,4-oxadiazol-3-yl)-3-methylpiperazin-1-yl)methyl)-7-methylimidazo[1,2-a]pyridin-6-yl)-6-methylnicotinamide] was tested, and the IC50 (human RORγt-LBD) was 5.7 nM, the CCR6 gene expression [1] was “significantly attenuated” and the IL17A gene expression [1] was “significantly attenuated”. The IL17F gene expression [1] was “significantly attenuated”, the IL22 gene expression [1] was “significantly attenuated” and the IL23R gene expression [1] was “significantly attenuated”. The IL26 gene expression [1] was “significantly attenuated” and the “IL-17 signature genes (NFKBIZ, DEFB4A, CCL20, IL36G) in HaCaT” value (HaCaT keratinocytes) was “marked reduction”.
